Numbered stars: 1 amine (or outer) side, 2 acyl side, 3 side chain; on linkers, the order of the positions; unused ones are H or OH. Bridge positions count the residues as written; N and C are the ends. Square brackets hold non-standard residues; d marks the D form. Peptide text beside a SMILES is read from it. * marks the point of attachment. DOTA = O=C(O)CN1CCN(CC(=O)O)CCN(CC(=O)*)CCN(CC(=O)O)CC1; TATA = O=C(CC[*:1])N1CN(C(=O)CC[*:2])CN(C(=O)CC[*:3])C1; X1 = O=C(O)CN1CCN(CC(=O)O)CCN([C@H](CCC(=O)*)C(=O)O)CC1; 1Nal = N[C@@H](Cc1cccc2ccccc12)C(=O)O; 2Nal = N[C@@H](Cc1ccc2ccccc2c1)C(=O)O; Hyp = O=C(O)[C@@H]1C[C@@H](O)CN1; hArg = N=C(N)NCCCC[C@H](N)C(=O)O
Key:
[1] = Oxidation stability in H2O2 (radio-HPLC)
Procedure: To avoid a too rapid degradation of radiolabeled peptides, a low H2O2 concentration of 0.0012% was chosen. […] In this context, there are three further thioether functionalities in each peptide due to the cyclization of the Cys residues with TATA. In Figure , the curves for the time-dependent degradation of the intact radioligands are depicted, from which the respective half-lives were calculated.
The stability toward oxidizing conditions was assessed with H2O2. For this purpose, the radioligands (2 nmol, 48 μL of labeling mixture) were treated with H2O2 (2 μL of 0.03%, final concentration of 0.0012%) at ambient temperature. At distinct time points (3, 5, and 7 h), an aliquot of 2 μL was withdrawn and diluted with 48 μL of a mixture named “Supersol,” which consists of 20% ethanol, 0.5% Triton X-100, 5 mM EDTA, 0.5 mM o-phenanthroline, and 0.1% saponin. […] The resulting solutions were analyzed by radio-HPLC (same system as that used for analyzing the ^64Cu-labelings).

[2] = Small animal PET/CT imaging; parameters: species or system mice; conditions: mouse, in vivo
Procedure: (§1) All animal experiments were performed following the protocols evaluated and approved by the Landesdirektion Sachsen, Referat 25 – Veterinärwesen, Lebensmittelüberwachung and Pharmazie (09105 Chemnitz, Germany, ethics approval number: 25-5131/562/52). HT-1376- and 5637-derived tumor xenograft models were established in NMRI nude mice (Rj: NMRI-Foxn1nu/nu, Charles River Laboratories, Sulzfeld, Germany) by subcutaneous injection of 5 × 10^6 cells in 100 μL of PBS containing 50% (v/v) Matrigel (Corning Life Sciences, Amsterdam, The Netherlands).
(§2) When the tumor volume reached 200 mm^3, PET experiments with radiotracers were performed. Radiolabeling of the ligands was performed as described previously with an apparent molar activity of 25 MBq/nmol. The radioligand stock solution (pH 6.5 – 7.5) was diluted in 0.9% NaCl, and 200 μL containing ∼9 MBq ([…]) was injected per mouse intravenously into a lateral tail vein. For blocking of target-specific radioligand binding, 75 nmol of blocking substance (1d) was administered simultaneously with the radioligand. Coincidences were recorded continuously in a 2 h PET-scan starting with the injection. Additionally, a CT scan was performed for anatomical referencing and attenuation correction. PET/CT imaging, reconstruction, and tissue delineation were carried out as described previously.

[3] = tested on: HT-1376-derived tumor xenograft model; assay: Small animal PET/CT imaging; parameters: species or system mice; conditions: mouse, in vivo
Procedure: as §1, §2

[4] = target: T1, immobilized human nectin-4 (Homo sapiens, UniProt Q96NY8); assay: SPR analysis of binding kinetics; conditions: ±SEM
T1 construct: close to the value determined for the complete extracellular domain of nectin-4 (0.94 nM); purchased R&D Systems 2659-N4
T1 sequence (Q96NY8 32-349 limits assumed): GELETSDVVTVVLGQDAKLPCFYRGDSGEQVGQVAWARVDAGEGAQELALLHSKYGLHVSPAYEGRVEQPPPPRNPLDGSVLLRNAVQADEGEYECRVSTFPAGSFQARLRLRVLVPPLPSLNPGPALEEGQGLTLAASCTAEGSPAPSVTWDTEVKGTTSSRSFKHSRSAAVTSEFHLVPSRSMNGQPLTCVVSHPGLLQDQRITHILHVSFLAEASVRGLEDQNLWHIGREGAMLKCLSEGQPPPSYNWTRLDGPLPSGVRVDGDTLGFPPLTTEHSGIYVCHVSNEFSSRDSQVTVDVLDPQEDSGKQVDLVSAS
Procedure: For this purpose, recombinant human nectin-4 was covalently immobilized on a CM5 sensor chip by EDC/NHS coupling. For analyses, the buffer composition (HBS-P+, pH 7.4) was similar to that of the FA assay; however, DMSO was completely omitted (1% DMSO for the FA assay).
The SPR analyses were carried out on a Biacore T200 (GE Healthcare, Chicago, IL, USA) at 25 °C using CM5 sensor chips (Cytiva) and HBS-P+ as running buffer (Cytiva) at a flow of 30 μL/min unless otherwise specified and a data collection rate of 10 Hz. All flow cells (FC) were normalized, and functionalization was performed using an amine coupling Kit (Cytiva). […] Binding analyses were performed by a single-cycle kinetic on both FC. Two start-up cycles were performed at the beginning of each experimental set, comprising the injection of bicyclic peptide (50 nM) and analysis on both FC, followed by regeneration. Binding analysis for the bicyclic peptides was performed by consecutive injection of five increasing concentrations (120 s contact time for each concentration), followed by 600 s dissociation time and analysis on both FC. The regeneration was performed by sequential injection of 10 mM NaOAc (pH 5.5) for 60 s, washing the needle using HBS-P+, injection of 10 mM NaOAc (pH 5.5) for 60 s, 600 s waiting, four injections of HBS-P+ (60 s), and a final 600 s waiting for stabilization. Blank runs using only buffer (HBS-P+) instead of the sample were carried out to obtain double-referenced chromatograms. Binding analyses were performed unless otherwise stated in a concentration range between 0.16–100 nM and 1.6–1000 nM (5-fold dilution series) and analyzed in triplicate. The data were analyzed using the Biacore Evaluation software 3.2.1. […] Data were fitted to a 1:1 binding model.

[5] = target: T2, recombinant human nectin-4 (Homo sapiens, UniProt Q96NY8); assay: FA-based competitive binding assay with probe 1a
T2 construct: close to the value determined for the complete extracellular domain of nectin-4 (0.94 nM); purchased R&D Systems 2659-N4
T2 sequence (Q96NY8 32-349 limits assumed): T1 sequence (Q96NY8 32-349 limits assumed)
Procedure: For the competitive binding assay, a constant concentration of probe 1a (1 nM) and of nectin-4 (20 nM) was used, and the concentration of the competitors was varied over at least 3 orders of magnitude. […] Analysis of the curves by nonlinear regression according to dose–response inhibition with variable slope, as implemented in GraphPad Prism (see Experimental section), provided the IC50 value for displacing the probe from nectin-4.
All measurements were conducted at 37 °C over 1200 s (interval of 37 s) using a Cytation 5 multimode microplate reader (BioTek Instruments, Software Gen 5) and black 96-well microplates (BRANDplates with F-bottom wells). Experiments were conducted at an excitation wavelength of 540 nm and an emission wavelength of 620 nm. The FA (r) was calculated by Gen 5 software from the measured parallel and perpendicular fluorescence intensities (I ∥ and I ⊥, respectively) according to eq using a G factor of 0.87 (preset value). r=I∥−G×I⊥/I∥+2G×I⊥ 1
All further data analyses were conducted with GraphPad Prism (version 10.4.1, GraphPad Software, San Diego, CA, USA). The assay mixture (100 μL) contained an aqueous solution (99 μL) and DMSO (1%, v/v, 1 μL).
For the competitive binding assay, fixed concentrations of probe 1a (1 nM) and recombinant human nectin-4 (20 nM) and 10 concentrations of nonlabeled peptide (e.g., […] prepared as serial 1:1 dilution) were used (two separate experiments, each performed in duplicate). The corresponding stock solutions of 1a (2.5 nM) and nectin-4 (50 nM) were prepared in HEPES buffer, while the stock solutions of the nonlabeled peptides were prepared in 5% DMSO/HEPES buffer. nectin-4 (40 μL) and 1a (40 μL) were added to the wells, and the competition was started by the addition of the nonlabeled peptides (20 μL). The FA values were averaged over the time period of 1200 s, and plots of FA = f([peptide]) were analyzed by nonlinear regression according to the model “[inhibitor] vs. response – Variable slope (four parameters)” as implemented in GraphPad Prism. […] Therefore, the lower FA plateau was constrained to the FA value of probe 1a in the absence of nectin-4 and the competitor, which was recorded in each experiment.

Row | half-life [1] [min] | half-life ([2]; Blood half life fast [min]) [min] | half-life ([2]; Blood half life slow [min]) [min] | Percent fast [%] [3] [%] | body retention at 2 h p.i. [3] | time of highest tumor uptake [3] | Compound | further results
1 | 208 | – | – | – | – | – | CSCC[C@@H]1NC(=O)[C@@H]2CSCCC(=O)N3CN(CN(C3)C(=O)CCSC[C@H](NC(=O)CC[C@H](C(=O)O)N3CCN(CC(=O)O)CCN(CC(=O)O)CC3)C(=O)N3CCC[C@H]3C(=O)N[C@@H](Cc3cccc4ccccc34)C(=O)N[C@H](CC(=O)O)C(=O)N2)C(=O)CCSC[C@@H](C(N)=O)NC(=O)[C@H](Cc2c[nH]c3ccccc23)NC(=O)[C@@H]2C[C@@H](O)CN2C(=O)[C@@H]2CCCN2C(=O)[C@H]([C@@H](C)O)NC(=O)[C@H](CO)NC(=O)[C@H](Cc2c[nH]c3ccccc23)NC(=O)[C@H](CC(=O)O)NC(=O)[C@H](CCCNC(=N)N)NC1=O [[^64Cu]Cu-10, metal not drawn] (X1-CP[1Nal][dD]CMRDWSTP[Hyp]WC-NH2; linker 1-5-15 via TATA) | –
2 | – | 1.44 ± 0.19 | 38.8 ± 2.49 | 78.28 ±1.97 | 75% | 8.5 min | CSCC[C@@H]1NC(=O)[C@@H]2CSCCC(=O)N3CN(CN(C3)C(=O)CCSC[C@H](NC(=O)CN3CCN(CC(=O)O)CCN(CC(=O)O)CCN(CC(=O)O)CC3)C(=O)N3CCC[C@H]3C(=O)N[C@@H](Cc3ccc4ccccc4c3)C(=O)N[C@H](CC(=O)O)C(=O)N2)C(=O)CCSC[C@@H](C(N)=O)NC(=O)[C@H](Cc2c[nH]c3ccccc23)NC(=O)[C@@H]2C[C@@H](O)CN2C(=O)[C@@H]2CCCN2C(=O)[C@H]([C@@H](C)O)NC(=O)[C@H](CO)NC(=O)[C@H](Cc2c[nH]c3ccccc23)NC(=O)[C@H](CC(=O)O)NC(=O)[C@H](CCCNC(=N)N)NC1=O [[^68Ga]Ga-8c, metal not drawn] ({DOTA}-CP[2Nal][dD]CMRDWSTP[Hyp]WC-NH2; linker 1-5-15 via TATA) | –
3 | – | 1.5 ± 0.15 | 37.1 ± 2.19 | 83.87 ±1.35 | 35% | 0.6 min | CSCC[C@@H]1NC(=O)[C@@H]2CSCCC(=O)N3CN(CN(C3)C(=O)CCSC[C@H](NC(=O)CN3CCN(CC(=O)O)CCN(CC(=O)O)CCN(CC(=O)O)CC3)C(=O)N3CCC[C@H]3C(=O)N[C@@H](Cc3ccc4ccccc4c3)C(=O)N[C@H](CC(=O)O)C(=O)N2)C(=O)CCSC[C@@H](C(=O)O)NC(=O)[C@H](Cc2c[nH]c3ccccc23)NC(=O)[C@@H]2C[C@@H](O)CN2C(=O)[C@@H]2CCCN2C(=O)[C@H]([C@@H](C)O)NC(=O)[C@H](CO)NC(=O)[C@H](Cc2c[nH]c3ccccc23)NC(=O)[C@H](CC(=O)O)NC(=O)[C@H](CCCNC(=N)N)NC1=O [[^68Ga]Ga-8d, metal not drawn, reference compound] ({DOTA}-CP[2Nal][dD]CMRDWSTP[Hyp]WC-OH; linker 1-5-15 via TATA) | –
4 | – | – | – | – | – | – | CCSC[C@@H]1NC(=O)[C@@H]2CSCCC(=O)N3CN(CN(C3)C(=O)CCSC[C@H](NC(=O)CC[C@H](C(=O)O)N3CCN(CC(=O)O)CCN(CC(=O)O)CC3)C(=O)N3CCC[C@H]3C(=O)N[C@@H](Cc3cccc4ccccc34)C(=O)N[C@H](CC(=O)O)C(=O)N2)C(=O)CCSC[C@@H](C(N)=O)NC(=O)[C@H](Cc2c[nH]c3ccccc23)NC(=O)[C@@H]2C[C@@H](O)CN2C(=O)[C@@H]2CCCN2C(=O)[C@H]([C@@H](C)O)NC(=O)[C@H](CO)NC(=O)[C@H](Cc2c[nH]c3ccccc23)NC(=O)[C@H](CC(=O)O)NC(=O)[C@H](CCCCNC(=N)N)NC1=O [[^64Cu]Cu-7, metal not drawn] (X1-CP[1Nal][dD]CC(Et)[hArg]DWSTP[Hyp]WC-NH2; linker 1-5-15 via TATA) | half-life ([1]; half-life of intact radiolabeled peptide (T1/2), 0.0012% H2O2, 25 °C, one-phase decay): 529 min
5 | 242 | 1.27 ± 0.13 | 35.9 ± 2.08 | 84.87 ±1.35 | 40–42% | ≈ 6 min | CSCC[C@@H]1NC(=O)[C@@H]2CSCCC(=O)N3CN(CN(C3)C(=O)CCSC[C@H](NC(=O)CC[C@H](C(=O)O)N3CCN(CC(=O)O)CCN(CC(=O)O)CC3)C(=O)N3CCC[C@H]3C(=O)N[C@@H](Cc3ccc4ccccc4c3)C(=O)N[C@H](CC(=O)O)C(=O)N2)C(=O)CCSC[C@@H](C(N)=O)NC(=O)[C@H](Cc2c[nH]c3ccccc23)NC(=O)[C@@H]2C[C@@H](O)CN2C(=O)[C@@H]2CCCN2C(=O)[C@H]([C@@H](C)O)NC(=O)[C@H](CO)NC(=O)[C@H](Cc2c[nH]c3ccccc23)NC(=O)[C@H](CC(=O)O)NC(=O)[C@H](CCCNC(=N)N)NC1=O [[^64Cu]Cu-8a, metal not drawn] (X1-CP[2Nal][dD]CMRDWSTP[Hyp]WC-NH2; linker 1-5-15 via TATA) | –
6 | – | – | – | – | – | – | CCOC[C@@H]1NC(=O)[C@@H]2CSCCC(=O)N3CN(CN(C3)C(=O)CCSC[C@H](NC(=O)CC[C@H](C(=O)O)N3CCN(CC(=O)O)CCN(CC(=O)O)CC3)C(=O)N3CCC[C@H]3C(=O)N[C@@H](Cc3cccc4ccccc34)C(=O)N[C@H](CC(=O)O)C(=O)N2)C(=O)CCSC[C@@H](C(N)=O)NC(=O)[C@H](Cc2c[nH]c3ccccc23)NC(=O)[C@@H]2C[C@@H](O)CN2C(=O)[C@@H]2CCCN2C(=O)[C@H]([C@@H](C)O)NC(=O)[C@H](CO)NC(=O)[C@H](Cc2c[nH]c3ccccc23)NC(=O)[C@H](CC(=O)O)NC(=O)[C@H](CCCCNC(=N)N)NC1=O [compound 6] (X1-CP[1Nal][dD]CS(Et)[hArg]DWSTP[Hyp]WC-NH2; linker 1-5-15 via TATA) | kon ([4]; HBS-P+ pH 7.4, 25 °C, read-out: k on (SPR, *10^6 M^–1 s^–1)): 3.86e+06 M⁻¹ s⁻¹; koff ([4]; pH 7.4, HBS-P+ pH 7.4, 25 °C, read-out: k off (SPR, *10^–3 s^–1)): 0.0247 s⁻¹; fold lower binding affinity compared to 1e ([5]; FA K d ratio): approximately 10 fold; Hill coefficient n ([5]; competitive binding curve, variable slope): 1.42

Source: article PMC12557367, ““Precision on Two Wheels”–Structural Refinement of ^64Cu- and ^68Ga-Labeled Bicyclic Peptides Targeting Nectin‑4 for Improved Tumor Imaging: From Preclinical Development to First-in-Human Application” (Journal of Medicinal Chemistry, 2025)
